ChEMBL document CHEMBL1201862, “PubChem BioAssay data set” (2004)
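Step 1: Grow cells in 96-well plates. Step 2: Expose to compound for 48 hours at 5 concentrations. Step 3: Interpolate endpoints linearly; if unreached, use highest concentration. The concentration for 50% growth inhibition is given as GI50.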 Calls of active or inactive are those of the source. Cut-off read from the data, not from the text of the source: active = GI50 up to about 1.1 µM and inactive = higher.

Assays:
Experiment in all cases: inhibition of tumour cell growth, NCI panel, 48 h
[1] = system: SF-539
[2] = system: ACHN
[3] = system: Malme-3M
[4] = system: U-251
[5] = system: SK-MEL-28
[6] = system: DU-145
[7] = system: SNB-75
[8] = system: SF-295
[9] = system: OVCAR-8
[10] = system: SNB-19
[11] = system: NCI/ADR-RES
[12] = system: Hs-578T
[13] = system: MDA-MB-231
[14] = system: HT-29
[15] = system: MCF7
[16] = system: UACC-257
[17] = system: LOX IMVI
[18] = system: NCI-H522
[19] = system: HOP-62
[20] = system: UACC-62
[21] = system: HCT-15
[22] = system: TK-10
[23] = system: CCRF-CEM
[24] = system: OVCAR-4
[25] = system: K562
[26] = system: HL-60
[27] = system: EKVX
[28] = system: UO-31
[29] = system: SF-268
[30] = system: BT-549
[31] = system: PC-3
[32] = system: T47D
[33] = system: RPMI-8226
[34] = system: RXF 393
[35] = system: HOP-92
[36] = system: M14
[37] = system: KM12
[38] = system: A549
[39] = system: A498
[40] = system: SW-620
[41] = system: OVCAR-3
[42] = system: COLO 205
[43] = system: HCT-116
[44] = system: CAKI-1
[45] = system: HCC 2998
[46] = system: 786-0
[47] = system: SK-MEL-2
[48] = system: SK-MEL-5
[49] = system: NCI-H23
[50] = system: MDA-MB-435
[51] = system: MDA-N
[52] = system: IGROV-1
[53] = system: OVCAR-5
[54] = system: SN12C
[55] = system: MOLT-4
[56] = system: NCI-H226
[57] = system: SK-OV-3
[58] = system: NCI-H460

Measured: GI50

O=C(NCCCN1CCN(CCCNC(=O)Nc2cccc3ccccc23)CC1)Nc1cccc2ccccc12
16.6 µM: [21]
inactive: [1] 18 µM | [2] 16.3 µM | [3] 3.15 µM | [4] 5.46 µM | [5] 14.4 µM | [6] 16.9 µM | [7] 15.5 µM | [8] 13.9 µM | [9] 18.7 µM | [10] 18.6 µM | [11] 84.9 µM | [12] 17.5 µM | [13] 2.25 µM | [14] 16.8 µM | [15] 17.5 µM | [16] 13.2 µM | [17] 8.49 µM | [18] 15.8 µM | [19] 11.7 µM | [20] 3.33 µM | [22] 14 µM | [23] 22.2 µM | [24] 25.4 µM | [25] 19.9 µM | [26] 16.3 µM | [27] 9.82 µM | [28] 16.6 µM | [29] 17.3 µM | [30] 13.2 µM | [31] 9.93 µM | [32] 13.2 µM | [33] 17.3 µM | [34] 11.1 µM | [35] 13.8 µM | [36] 16.3 µM | [37] 19.3 µM | [38] 17.7 µM | [39] 15.3 µM | [40] 8.32 µM | [41] 13.6 µM | [42] 15.7 µM | [43] 14.4 µM | [44] 16.2 µM | [45] 2.29 µM | [46] 18.9 µM | [47] 18.7 µM | [48] 16.6 µM | [49] 16.2 µM | [50] 16.2 µM | [51] 15.6 µM | [52] 17.3 µM | [53] 15.1 µM | [54] 16.3 µM

CC(C)=CCC/C(C)=C/CC/C(C)=C/CC/C(C)=C/C=C/C=C(\C)CC/C=C(\C)CC/C=C(\C)CCC=C(C)C
inactive: [1] > 100 µM | [2] 31.5 µM | [3] > 77.1 µM | [4] 63.7 µM | [5] > 100 µM | [6] > 56.9 µM | [7] > 71.6 µM | [8] > 100 µM | [9] > 63 µM | [10] > 100 µM | [11] 50.7 µM | [12] > 82.6 µM | [13] > 70.5 µM | [14] > 100 µM | [55] 19.7 µM | [15] 44.2 µM | [16] > 100 µM | [17] 21.2 µM | [18] 14.8 µM | [19] 72.6 µM | [20] > 100 µM | [22] > 58.7 µM | [23] 24.6 µM | [56] > 100 µM | [24] > 57.4 µM | [25] 17.2 µM | [26] 3.02 µM | [27] 32.3 µM | [28] 25.3 µM | [29] > 58.7 µM | [30] > 100 µM | [31] > 81.5 µM | [32] 72.1 µM | [33] 38.4 µM | [34] > 100 µM | [35] 45.5 µM | [36] > 100 µM | [37] 31.8 µM | [38] 60 µM | [39] > 100 µM | [40] > 100 µM | [41] > 100 µM | [42] > 100 µM | [43] > 92.5 µM | [44] 16.8 µM | [45] > 100 µM | [46] 22.2 µM | [47] > 100 µM | [48] 44.1 µM | [49] 68.2 µM | [50] > 76.6 µM | [51] > 68.5 µM | [57] > 100 µM | [58] 34.8 µM | [52] 17.5 µM | [53] > 100 µM | [54] > 39.4 µM
> 100 µM: [21]
